Our source for the EC50 values is BindingDB's records for doi:10.1016/j.bmc.2008.07.037 (Merck Research Laboratories, 2008).

The nature of the assay: Inhibition of glucocorticoid-mediated human MMP1 expression in PMA stimulated A549 cells assessed as MMP1 protein level by ELISA. (An ELISA detects its analyte on a solid surface through an enzyme-linked reagent.)

The EC50 is the concentration at which the effect is half-maximal. As for `C[C@H]1C[C@H]2[C@@H]3CCC4=CC(=O)C=C[C@]4(C)[C@@]3(F)[C@@H](O)C[C@]2(C)[C@@]1(OC(=O)NC(C)(C)CC(C)(C)C)C(=O)CO` [(8S,9R,10S,11S,13S,14S,16S,17R)-9-fluoro-11-hydroxy-17-(2-hydroxyacetyl)-10,13,16-trimethyl-3-oxo-6,7,8,9,10,11,12,13,14,15,16,17-dodecahydro-3H-cyclopenta[a]phenanthren-17-yl 2,4,4-trimethylpentan-2-ylcarbamate], the EC50 worked out at 23.2 nM.

On to `C[C@H]1C[C@H]2[C@@H]3CCC4=CC(=O)C=C[C@]4(C)[C@@]3(F)[C@@H](O)C[C@]2(C)[C@@]1(OC(=O)NCCC(C)(C)C)C(=O)CO` [(8S,9R,10S,11S,13S,14S,16S,17R)-9-fluoro-11-hydroxy-17-(2-hydroxyacetyl)-10,13,16-trimethyl-3-oxo-6,7,8,9,10,11,12,13,14,15,16,17-dodecahydro-3H-cyclopenta[a]phenanthren-17-yl 3,3-dimethylbutylcarbamate], for which the EC50 worked out at 21 nM. For `C[C@H]1C[C@H]2[C@@H]3CCC4=CC(=O)C=C[C@]4(C)[C@@]3(F)[C@@H](O)C[C@]2(C)[C@@]1(OC(=O)NC1CCCCC1)C(=O)CO` [(8S,9R,10S,11S,13S,14S,16S,17R)-9-fluoro-11-hydroxy-17-(2-hydroxyacetyl)-10,13,16-trimethyl-3-oxo-6,7,8,9,10,11,12,13,14,15,16,17-dodecahydro-3H-cyclopenta[a]phenanthren-17-yl cyclohexylcarbamate], the EC50 is 1.3 nM. The figure for `C[C@H]1C[C@H]2[C@@H]3CCC4=CC(=O)C=C[C@]4(C)[C@@]3(F)[C@@H](O)C[C@]2(C)[C@@]1(OC(=O)NCC(C)(C)C)C(=O)CO` [(8S,9R,10S,11S,13S,14S,16S,17R)-9-fluoro-11-hydroxy-17-(2-hydroxyacetyl)-10,13,16-trimethyl-3-oxo-6,7,8,9,10,11,12,13,14,15,16,17-dodecahydro-3H-cyclopenta[a]phenanthren-17-yl neopentylcarbamate] is 0.1 nM; for `CCCCCNC(=O)O[C@]1(C(=O)CO)[C@@H](C)C[C@H]2[C@@H]3CCC4=CC(=O)C=C[C@]4(C)[C@@]3(F)[C@@H](O)C[C@@]21C` [(8S,9R,10S,11S,13S,14S,16S,17R)-9-fluoro-11-hydroxy-17-(2-hydroxyacetyl)-10,13,16-trimethyl-3-oxo-6,7,8,9,10,11,12,13,14,15,16,17-dodecahydro-3H-cyclopenta[a]phenanthren-17-yl pentylcarbamate] it is 18 nM. Under `CCC(C)NC(=O)O[C@]1(C(=O)CO)[C@@H](C)C[C@H]2[C@@H]3CCC4=CC(=O)C=C[C@]4(C)[C@@]3(F)[C@@H](O)C[C@@]21C` (stereo partly drawn) [(8S,9R,10S,11S,13S,14S,16S,17R)-9-fluoro-11-hydroxy-17-(2-hydroxyacetyl)-10,13,16-trimethyl-3-oxo-6,7,8,9,10,11,12,13,14,15,16,17-dodecahydro-3H-cyclopenta[a]phenanthren-17-yl sec-butylcarbamate] stands 0.8 nM. As for `CCC(C)(C)NC(=O)O[C@]1(C(=O)CO)[C@@H](C)C[C@H]2[C@@H]3CCC4=CC(=O)C=C[C@]4(C)[C@@]3(F)[C@@H](O)C[C@@]21C` [(8S,9R,10S,11S,13S,14S,16S,17R)-9-fluoro-11-hydroxy-17-(2-hydroxyacetyl)-10,13,16-trimethyl-3-oxo-6,7,8,9,10,11,12,13,14,15,16,17-dodecahydro-3H-cyclopenta[a]phenanthren-17-yl tert-pentylcarbamate], the EC50 is 53.3 nM. For `COC(=O)[C@H](C)NC(=O)O[C@]1(C(=O)CO)[C@@H](C)C[C@H]2[C@@H]3CCC4=CC(=O)C=C[C@]4(C)[C@@]3(F)[C@@H](O)C[C@@]21C` [(11beta,16beta)-9-Fluoro-11,21-dihydroxy-16-methyl-3,20-dioxopregna-1,4-dien-17-yl (1S)-1-(methoxycarbonyl)-ethylcarbamate], the EC50 came out at 83 nM. The figure for `C[C@H](NC(=O)O[C@]1(C(=O)CO)[C@@H](C)C[C@H]2[C@@H]3CCC4=CC(=O)C=C[C@]4(C)[C@@]3(F)[C@@H](O)C[C@@]21C)c1ccccc1` [(11beta,16beta)-9-Fluoro-11,21-dihydroxy-16-methyl-3,20-dioxopregna-1,4-dien-17-yl (1S)-1-phenylethylcarbamate] is 4.9 nM. Under `C=CCNC(=O)O[C@]1(C(=O)CO)[C@@H](C)C[C@H]2[C@@H]3CCC4=CC(=O)C=C[C@]4(C)[C@@]3(F)[C@@H](O)C[C@@]21C` [(11beta,16beta)-9-Fluoro-11,21-dihydroxy-16-methyl-3,20-dioxopregna-1,4-dien-17-yl allylcarbamate] stands 39 nM; under `CCCCNC(=O)O[C@]1(C(=O)CO)[C@@H](C)C[C@H]2[C@@H]3CCC4=CC(=O)C=C[C@]4(C)[C@@]3(F)[C@@H](O)C[C@@]21C` [(11beta,16beta)-9-Fluoro-11,21-dihydroxy-16-methyl-3,20-dioxopregna-1,4-dien-17-yl butylcarbamate], 22 nM; under `C[C@H]1C[C@H]2[C@@H]3CCC4=CC(=O)C=C[C@]4(C)[C@@]3(F)[C@@H](O)C[C@]2(C)[C@@]1(OC(=O)NC1CCCC1)C(=O)CO` [(11beta,16beta)-9-Fluoro-11,21-dihydroxy-16-methyl-3,20-dioxopregna-1,4-dien-17-yl cyclopentylcarbamate], 2.8 nM.

As for `CCNC(=O)O[C@]1(C(=O)CO)[C@@H](C)C[C@H]2[C@@H]3CCC4=CC(=O)C=C[C@]4(C)[C@@]3(F)[C@@H](O)C[C@@]21C` [(11beta,16beta)-9-Fluoro-11,21-dihydroxy-16-methyl-3,20-dioxopregna-1,4-dien-17-yl ethylcarbamate], the EC50 amounted to 15.9 nM. Regarding `CC(C)NC(=O)O[C@]1(C(=O)CO)[C@@H](C)C[C@H]2[C@@H]3CCC4=CC(=O)C=C[C@]4(C)[C@@]3(F)[C@@H](O)C[C@@]21C` [(11beta,16beta)-9-Fluoro-11,21-dihydroxy-16-methyl-3,20-dioxopregna-1,4-dien-17-yl isopropylcarbamate], the EC50 was found to be 1.9 nM. Consider `CCCNC(=O)O[C@]1(C(=O)CO)[C@@H](C)C[C@H]2[C@@H]3CCC4=CC(=O)C=C[C@]4(C)[C@@]3(F)[C@@H](O)C[C@@]21C` [(11beta,16beta)-9-Fluoro-11,21-dihydroxy-16-methyl-3,20-dioxopregna-1,4-dien-17-yl propylcarbamate], for which the EC50 is 18.7 nM. The figure for `C[C@H]1C[C@H]2[C@@H]3CCC4=CC(=O)C=C[C@]4(C)[C@@]3(F)[C@@H](O)C[C@]2(C)[C@@]1(OC(=O)NC(C)(C)C)C(=O)CO` [(11beta,16beta)-9-Fluoro-11,21-dihydroxy-16-methyl-3,20-dioxopregna-1,4-dien-17-yl tert-butylcarbamate] is 1.6 nM; for `C[C@H]1C[C@H]2[C@@H]3CCC4=CC(=O)C=C[C@]4(C)[C@@]3(F)[C@@H](O)C[C@]2(C)[C@@]1(OC(=O)NC12CC3CC(CC(C3)C1)C2)C(=O)CO` [Adamantan-1-yl-carbamic acid (8S,9R,10S,11S,13S,14S,16S,17R)-9-fluoro-11-hydroxy-17-(2-hydroxy-acetyl)-10,13,16-trimethyl-3-oxo-6,7,8,9,10,11,12,13,14,15,16,17-dodecahydro-3H-cyclopenta[a]phenanthren-17-yl este] it is 3.4 nM.
